# Laboratory results as given in PubChem BioAssay AID1444 (PCMD, 2008).
# Molecular target: E3 ubiquitin-protein ligase Mdm2 (Homo sapiens) (UniProt Q00987)
# Assay: compounds raising luminescence in WT MDM2 cells – cell-based, wild-type MDM2, luciferase luminescence, dose response (AID 1444)
# Details: MDM2 wild-type luciferase reporter cells, 2 h
# Chain of E3 ubiquitin-protein ligase Mdm2 (Homo sapiens) (Q00987 whole entry, looked up): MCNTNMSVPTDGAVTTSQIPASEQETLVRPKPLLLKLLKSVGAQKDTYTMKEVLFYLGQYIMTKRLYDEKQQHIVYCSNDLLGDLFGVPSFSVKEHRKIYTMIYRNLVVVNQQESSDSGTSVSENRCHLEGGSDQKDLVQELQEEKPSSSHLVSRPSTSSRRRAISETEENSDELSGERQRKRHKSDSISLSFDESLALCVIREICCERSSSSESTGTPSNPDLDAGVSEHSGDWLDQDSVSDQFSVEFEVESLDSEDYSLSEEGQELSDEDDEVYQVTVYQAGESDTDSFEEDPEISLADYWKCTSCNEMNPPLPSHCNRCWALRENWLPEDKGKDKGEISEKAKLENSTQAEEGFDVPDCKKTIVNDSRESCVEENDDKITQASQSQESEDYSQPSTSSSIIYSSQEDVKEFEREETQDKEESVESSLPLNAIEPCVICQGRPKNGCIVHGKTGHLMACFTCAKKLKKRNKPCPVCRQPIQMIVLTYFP
compound,measurement,value
CC1=NN(c2cccc(C(=O)O)c2)C(=O)/C1=C\C=C/c1ccccc1,EC50,720 nM
